Entries after “also recorded” stand apart in the source; their conditions may differ.
Key:
[1] = following IV administration; cited from earlier work
[2] = system: GlyT2; conditions: read-out: GlyT2 IC50; cited from earlier work
[3] = system: GlyT1; conditions: cited from earlier work
[4] = system: male Sprague Dawley rats; test: Side effects in the analgesia study; type: in vivo, rat; conditions: 30 mg/kg ip
[5] = system: nerve ligation rat model of neuropathic pain; type: in vivo; conditions: 30 mg/kg ip, compared to vehicle
[6] = target: T1, human GlyT2a (Homo sapiens, UniProt Q9Y345); type: cell-based
T1 sequence (Q9Y345 1-797): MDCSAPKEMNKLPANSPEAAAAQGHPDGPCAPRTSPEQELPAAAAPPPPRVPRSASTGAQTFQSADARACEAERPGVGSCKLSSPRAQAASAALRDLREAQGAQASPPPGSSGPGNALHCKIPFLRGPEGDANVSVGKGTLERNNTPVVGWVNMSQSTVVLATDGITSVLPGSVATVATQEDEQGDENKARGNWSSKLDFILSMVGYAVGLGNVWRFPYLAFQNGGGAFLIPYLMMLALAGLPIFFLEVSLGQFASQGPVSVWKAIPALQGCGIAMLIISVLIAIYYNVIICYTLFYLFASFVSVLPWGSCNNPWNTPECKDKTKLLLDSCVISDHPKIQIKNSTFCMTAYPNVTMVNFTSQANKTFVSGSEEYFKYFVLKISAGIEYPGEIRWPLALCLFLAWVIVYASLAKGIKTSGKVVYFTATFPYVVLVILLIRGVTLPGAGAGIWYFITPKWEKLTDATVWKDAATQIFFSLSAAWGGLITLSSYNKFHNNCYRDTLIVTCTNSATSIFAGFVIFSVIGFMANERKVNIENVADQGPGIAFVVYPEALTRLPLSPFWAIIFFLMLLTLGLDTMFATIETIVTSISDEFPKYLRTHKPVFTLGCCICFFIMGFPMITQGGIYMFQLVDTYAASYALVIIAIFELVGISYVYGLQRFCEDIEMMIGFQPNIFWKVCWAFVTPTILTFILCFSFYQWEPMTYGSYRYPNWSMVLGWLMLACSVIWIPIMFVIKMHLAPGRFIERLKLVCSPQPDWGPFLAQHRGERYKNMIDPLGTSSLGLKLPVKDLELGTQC

[7] = target: T2, GlyT2 (Homo sapiens, UniProt Q9Y345); type: cell-based
T2 sequence (Q9Y345 1-797): T1 sequence (Q9Y345 1-797)

[8] = Stability in human liver microsomes; type: in vitro ADME; conditions: for half-life at 1 μM: human, human liver microsomes, pH 7.4
[9] = target: T3, human GlyT1b (Homo sapiens, UniProt P48067); type: cell-based; conditions: 3 μM (maximal concentration)
T3 sequence (P48067 1-652 isoform P48067-3): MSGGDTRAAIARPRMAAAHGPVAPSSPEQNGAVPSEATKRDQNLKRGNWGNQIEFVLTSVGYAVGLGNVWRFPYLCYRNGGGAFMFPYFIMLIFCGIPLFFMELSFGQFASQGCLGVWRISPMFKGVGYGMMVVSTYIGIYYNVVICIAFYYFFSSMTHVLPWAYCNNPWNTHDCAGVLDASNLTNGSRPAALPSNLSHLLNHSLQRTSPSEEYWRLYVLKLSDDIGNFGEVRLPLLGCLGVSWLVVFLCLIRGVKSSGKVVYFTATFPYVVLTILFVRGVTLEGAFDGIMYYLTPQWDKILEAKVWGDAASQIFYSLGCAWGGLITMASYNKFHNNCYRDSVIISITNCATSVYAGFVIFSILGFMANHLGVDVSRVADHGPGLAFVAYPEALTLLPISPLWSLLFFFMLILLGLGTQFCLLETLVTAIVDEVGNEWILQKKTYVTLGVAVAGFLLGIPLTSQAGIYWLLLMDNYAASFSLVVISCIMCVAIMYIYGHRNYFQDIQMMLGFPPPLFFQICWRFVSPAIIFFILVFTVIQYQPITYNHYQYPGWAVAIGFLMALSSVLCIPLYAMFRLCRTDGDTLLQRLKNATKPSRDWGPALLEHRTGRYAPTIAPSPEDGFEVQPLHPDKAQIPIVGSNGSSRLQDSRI

[10] = Stability in human plasma; type: in vitro ADME
[11] = Stability in rat plasma; type: in vitro ADME
[12] = Stability in rat liver microsomes; type: in vitro ADME
[13] = system: Nav channels; test: Pain target screen, Nav channels
[14] = target: μOR (Homo sapiens, UniProt P35372); test: μOR agonist/antagonist activity in AtT20 cells expressing μORs; type: cell-based; conditions: 1 μM
Sequence of μOR (P35372 whole entry): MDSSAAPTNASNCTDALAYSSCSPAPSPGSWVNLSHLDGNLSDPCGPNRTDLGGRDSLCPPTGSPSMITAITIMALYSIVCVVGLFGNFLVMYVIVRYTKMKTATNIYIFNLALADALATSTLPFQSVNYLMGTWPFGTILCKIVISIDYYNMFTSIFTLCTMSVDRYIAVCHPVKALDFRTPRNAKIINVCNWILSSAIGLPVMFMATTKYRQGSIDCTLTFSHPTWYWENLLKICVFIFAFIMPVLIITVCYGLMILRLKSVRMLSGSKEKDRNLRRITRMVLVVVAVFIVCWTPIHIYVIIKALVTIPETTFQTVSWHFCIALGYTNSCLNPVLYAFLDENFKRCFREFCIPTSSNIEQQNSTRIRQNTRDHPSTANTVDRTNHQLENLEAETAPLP

[15] = target: T4, Adrenergic α2A receptor (Homo sapiens, UniProt P08913); test: Selectivity panel, displacement of radioactive ligand; type: binding; conditions: 10 μM
T4 sequence (P08913 1-465): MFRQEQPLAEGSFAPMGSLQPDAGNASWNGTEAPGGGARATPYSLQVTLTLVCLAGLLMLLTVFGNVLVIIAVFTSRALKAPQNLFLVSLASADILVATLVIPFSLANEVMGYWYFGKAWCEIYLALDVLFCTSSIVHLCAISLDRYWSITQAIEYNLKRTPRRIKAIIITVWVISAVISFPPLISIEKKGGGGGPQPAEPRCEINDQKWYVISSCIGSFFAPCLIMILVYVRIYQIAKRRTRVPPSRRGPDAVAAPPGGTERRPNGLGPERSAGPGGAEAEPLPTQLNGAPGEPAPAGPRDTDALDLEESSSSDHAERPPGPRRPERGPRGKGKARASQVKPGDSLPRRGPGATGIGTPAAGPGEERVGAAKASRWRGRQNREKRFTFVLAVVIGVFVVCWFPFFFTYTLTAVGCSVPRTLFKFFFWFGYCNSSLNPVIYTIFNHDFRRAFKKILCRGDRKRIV

[16] = target: T2, GlyT2; test: Electrophysiology washout assay; type: cell-based; conditions: IC50 concentration of inhibitor, after 25 minutes wash
[17] = target: α7 nicotinic acetylcholine receptors (Homo sapiens, UniProt P36544); test: Pain target screen, α7 nicotinic acetylcholine receptors
Sequence of α7 nicotinic acetylcholine receptors (P36544 23-502): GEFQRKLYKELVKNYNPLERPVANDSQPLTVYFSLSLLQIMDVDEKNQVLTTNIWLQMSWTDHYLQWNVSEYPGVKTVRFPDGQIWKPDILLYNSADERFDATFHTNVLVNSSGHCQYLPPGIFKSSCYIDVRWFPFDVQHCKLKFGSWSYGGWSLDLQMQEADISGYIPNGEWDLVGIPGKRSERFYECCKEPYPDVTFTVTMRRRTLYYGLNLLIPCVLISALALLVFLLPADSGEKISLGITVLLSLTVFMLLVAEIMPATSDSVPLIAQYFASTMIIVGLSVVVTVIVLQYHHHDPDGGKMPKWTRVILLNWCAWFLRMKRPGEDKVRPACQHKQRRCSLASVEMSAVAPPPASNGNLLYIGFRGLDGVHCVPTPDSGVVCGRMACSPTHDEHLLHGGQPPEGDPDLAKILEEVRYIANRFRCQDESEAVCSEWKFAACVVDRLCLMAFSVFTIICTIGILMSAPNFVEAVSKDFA

[18] = In vivo pharmacokinetic study, plasma and brain exposure; design: species or system rat
[19] = target: CB1 (Homo sapiens, UniProt P21554); test: Lipid receptor screen, agonist/antagonist
Sequence of CB1 (P21554 whole entry, species assumed): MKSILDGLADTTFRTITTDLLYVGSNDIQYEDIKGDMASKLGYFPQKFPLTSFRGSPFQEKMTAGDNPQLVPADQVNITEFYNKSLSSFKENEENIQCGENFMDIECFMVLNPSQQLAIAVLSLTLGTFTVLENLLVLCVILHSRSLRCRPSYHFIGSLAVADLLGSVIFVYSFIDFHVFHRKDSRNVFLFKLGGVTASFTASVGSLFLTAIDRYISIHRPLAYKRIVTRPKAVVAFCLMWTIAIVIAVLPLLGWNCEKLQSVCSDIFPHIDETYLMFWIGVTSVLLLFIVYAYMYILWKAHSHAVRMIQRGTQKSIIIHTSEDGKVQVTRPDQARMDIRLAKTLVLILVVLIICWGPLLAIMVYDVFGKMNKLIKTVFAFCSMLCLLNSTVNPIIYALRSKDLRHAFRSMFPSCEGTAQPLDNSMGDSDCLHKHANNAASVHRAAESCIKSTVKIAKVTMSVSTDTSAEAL

[20] = target: CB2 (Homo sapiens, UniProt P34972); test: Lipid receptor screen, agonist/antagonist
Sequence of CB2 (P34972 whole entry, species assumed): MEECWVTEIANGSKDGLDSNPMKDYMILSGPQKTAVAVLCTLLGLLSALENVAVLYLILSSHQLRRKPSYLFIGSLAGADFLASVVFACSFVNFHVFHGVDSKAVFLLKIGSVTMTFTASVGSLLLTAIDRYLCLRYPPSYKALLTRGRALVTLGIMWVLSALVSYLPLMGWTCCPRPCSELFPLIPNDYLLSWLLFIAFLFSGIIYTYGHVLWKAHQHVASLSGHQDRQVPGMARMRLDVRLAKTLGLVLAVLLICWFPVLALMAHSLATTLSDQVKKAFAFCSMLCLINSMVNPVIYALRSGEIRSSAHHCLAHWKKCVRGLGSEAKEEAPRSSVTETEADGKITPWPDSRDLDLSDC

[21] = system: Cav channels; test: Pain target screen, Cav channels
[22] = target: μ opioid receptor (μOR) (Homo sapiens, UniProt P35372); test: Selectivity panel, displacement of radioactive ligand; type: binding; conditions: 10 μM
Sequence of μ opioid receptor (μOR) (P35372 whole entry, species assumed): as the sequence (P35372 whole entry) above

[23] = system: sphingosine-1-phosphate receptor; test: Lipid receptor screen, agonist/antagonist
[24] = target: norepinephrine transporter (Homo sapiens, UniProt P23975); test: Selectivity panel, displacement of radioactive ligand; type: binding; conditions: 10 μM
Sequence of norepinephrine transporter (P23975 whole entry, species assumed): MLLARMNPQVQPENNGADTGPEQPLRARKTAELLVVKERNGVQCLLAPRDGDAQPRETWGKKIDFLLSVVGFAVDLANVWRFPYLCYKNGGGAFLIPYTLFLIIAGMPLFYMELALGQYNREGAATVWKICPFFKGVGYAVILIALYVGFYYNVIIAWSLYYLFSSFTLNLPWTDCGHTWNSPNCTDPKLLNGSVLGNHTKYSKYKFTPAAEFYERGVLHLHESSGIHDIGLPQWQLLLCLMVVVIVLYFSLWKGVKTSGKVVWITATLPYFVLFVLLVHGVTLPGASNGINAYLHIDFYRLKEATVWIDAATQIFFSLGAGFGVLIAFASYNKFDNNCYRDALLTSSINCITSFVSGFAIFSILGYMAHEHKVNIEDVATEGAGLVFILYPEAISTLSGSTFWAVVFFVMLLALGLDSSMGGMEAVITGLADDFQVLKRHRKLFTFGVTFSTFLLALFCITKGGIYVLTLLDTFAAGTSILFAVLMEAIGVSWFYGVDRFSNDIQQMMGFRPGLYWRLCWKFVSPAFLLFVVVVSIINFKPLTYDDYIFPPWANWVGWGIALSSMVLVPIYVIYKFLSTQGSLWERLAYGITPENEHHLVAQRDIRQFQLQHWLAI

N[C@@H](COC(c1cccc(F)c1)c1ccccc1OCc1ccccc1)C(=O)O (stereo partly shown) [Compound 1, ALX1393]
ratio of unbound drug in brain and plasma (Kp,uu) [1]: 0.05
IC50 [2]: 100 nM

COc1cc(C(=O)NCC2(N(C)C)CCCC2)cc(OC)c1OCc1ccccc1 [Compound 2, ORG25543]
activity at GlyT1 [3]: no appreciable activity
animals with side effects [4]: 4 out of the 6
duration of side effects post injection [4]: up to 60 min
side effects [4]: more severe side effects
reversal of allodynia (analgesia) [5]: Non-significant reversal of allodynia
IC50 [2]: 16 nM

CCCCCCCC/C=C\CCCCCCCC(=O)NCC(=O)O [Compound 4, N-oleoyl glycine]
effect on GlyT1 ([3]; concentrations up to 10 μM): no effect

CCCCC/C=C\C/C=C\C/C=C\C/C=C\CCCC(=O)NCC(=O)O [Compound 5, N-arachidonyl glycine]
activity at GlyT1 [3]: little activity

CCCCCCCC/C=C\CCCCCCCC(=O)N[C@@H](CCSC)C(=O)O [Compound 12, (2S)-4-methylsulfanyl-2-[[(Z)-octadec-9-enoyl]amino]butanoic acid]
fold improvement in GlyT2 activity ([6]; relative to 14): ~ 9 fold

CCCCCCCC/C=C\CCCCCCCC(=O)N[C@@H](CCCC)C(=O)O [Compound 14, (2S)-2-[[(Z)-octadec-9-enoyl]amino]hexanoic acid]
fold less potent than 10 at GlyT2 ([6]; relative to 10): 2 fold

CCCCCCCC/C=C\CCCCCCCC(=O)N[C@@H](CCCCN)C(=O)O.Cl [Compound 32, (2S)-6-amino-2-[[(Z)-octadec-9-enoyl]amino]hexanoic acid.HCl]
mechanism of GlyT2 inhibition [7]: non-competitive inhibitor
stability in human liver microsomes [8]: stable
half-life at 1 μM [8]: > 4.25 h
inhibition of GlyT1 glycine currents [9]: not reduced
half-life at 1000 ng/mL ([10]; human, human plasma (pooled)): > 17 h
fold improvement of degradation half-life ([11]; rat plasma, relative to 4): ~ 3 fold
stability in rat liver microsomes [12]: rapidly metabolised

CCCCCCCC/C=C\CCCCCCCC(=O)N[C@H](CCCCN)C(=O)O.Cl [Compound 33, (2R)-6-amino-2-[[(Z)-octadec-9-enoyl]amino]hexanoic acid.HCl]
inhibition of Nav channels [13]: no significant inhibition
activity as a μOR agonist or antagonist [14]: no activity
displacement of radioactive ligands [15]: greater than 50%
stability in human liver microsomes [8]: stable
half-life at 1 μM [8]: > 4.25 h
inhibition of GlyT1 glycine currents [9]: little inhibition
recovery of transport after washout [16]: completely restored
degradation in human plasma [10]: did not exhibit measurable degradation
inhibition of α7 nicotinic acetylcholine receptors [17]: no significant inhibition
concentration of unbound drug (Cunbound) in brain at Cmax ([18]; 27.5 mg/kg ip): approximately 90 nM
Cmax Brain ([18]; single 27.5 mg/kg ip, Sprague Dawley rats): 1854 ng/g
degradation in rat plasma [11]: did not exhibit measurable degradation
stability in rat liver microsomes [12]: minimally degraded
half-life at 1 μM ([12]; rat, rat liver microsomes, pH 7.4): > 4.25 h
duration of side effects post injection [4]: up to 15 min
side effects [4]: Mild side effects
reversal of allodynia (analgesia) [5]: significant analgesia; also recorded: Significant reversal of allodynia
activity as agonist or antagonist at CB1 [19]: no activity
activity as agonist or antagonist at CB2 [20]: no activity
inhibition of Cav channels [21]: no significant inhibition
displacement of radioactive ligands [22]: greater than 50%
activity as agonist or antagonist at sphingosine-1-phosphate receptor [23]: no activity
displacement of radioactive ligands [24]: greater than 50%

CCCCCCCC/C=C\CCCCCCCC(=O)NCCCCCN.Cl [Compound 37, (Z)-N-(5-aminopentyl)octadec-9-enamide.HCl]
fold reduction of GlyT2 potency ([6]; relative to 32): ~ 22 fold

Source: PMC6420064 (Journal of medicinal chemistry, 2019)
